Assay results reported in ChEMBL document CHEMBL1134056, “Diaryl ether inhibitors of farnesyl-protein transferase” (Bioorg Med Chem Lett, 2001).

What was measured:
[1] = target: Geranylgeranyl transferase type I (Homo sapiens, UniProt P49354+P53609); test: Inhibition of rate of incorporation of [3H]GGPP into a biotinylated peptide corresponding to C-terminus of human Ki-Ras by human geranylgeranyl-transferase type I.; type: protein-complex assay
[2] = target: Protein farnesyltransferase (Homo sapiens, UniProt P49354+P49356); test: Inhibition of rate of incorporation of [3H]FPP into recombinant Ras-CVIM by human farnesyltransferase.; type: protein-complex assay
[3] = target: Protein farnesyltransferase (Rattus norvegicus, UniProt Q02293+Q04631); test: Displacement of radiolabeled FTI from Farnesyltransferase in cultured v-Ha-ras-transformed RAT1 cells; type: functional, cell-based

**Q.** With `C#Cc1cccc(Oc2cc(Cn3ccnc3)ccc2C#N)c1` as the compound, how does the IC50 [1] read?
**A.** 2600 nM

**Q.** What about the IC50 [2] of the same compound?
**A.** 27 nM

**Q.** Which results are given for `N#Cc1ccc(Cn2ccnc2)cc1Oc1ccc(Cl)cc1`?
**A.** IC50 [1]: 920 nM; IC50 [2]: 38 nM

**Q.** For `N#Cc1ccc(Cn2ccnc2)cc1Oc1cccc(Br)c1`, which IC50 [1] is on record?
**A.** 2900 nM

**Q.** And the IC50 [2]?
**A.** 38 nM

**Q.** Which IC50 [3] does the source give for `COc1cccc(Oc2cc(Cn3ccnc3)ccc2C#N)c1OC` here?
**A.** 14 nM

**Q.** And the IC50 [1]?
**A.** 15000 nM

**Q.** What about the IC50 [2] of the same compound?
**A.** 1 nM

**Q.** Which IC50 [1] does the source give for `N#Cc1ccc(Cn2ccnc2)cc1Oc1ccccc1Cl` here?
**A.** 1100 nM

**Q.** What about the IC50 [2] of the same compound?
**A.** 41 nM

**Q.** Which results are given for `N#Cc1ccc(Cn2ccnc2)cc1Oc1cccc(C(=O)c2ccccc2)c1`?
**A.** IC50 [1]: 840 nM; IC50 [2]: 13 nM

**Q.** Which results are given for `N#Cc1cccc(Oc2cc(Cn3ccnc3)ccc2C#N)c1`?
**A.** IC50 [1]: 16000 nM; IC50 [2]: 130 nM

**Q.** Which IC50 [1] does the source give for `COc1ccc(Oc2cc(Cn3ccnc3)ccc2C#N)cc1` here?
**A.** 3500 nM

**Q.** And the IC50 [2]?
**A.** 290 nM

**Q.** What does the source list for `N#Cc1ccc(Cn2ccnc2)cc1S(=O)(=O)c1ccc(Cl)cc1Cl`?
**A.** IC50 [1]: 8800 nM; IC50 [2]: 5400 nM

**Q.** With `N#Cc1ccc(Cn2ccnc2)cc1Oc1cccc(NC(=O)c2ccccc2)c1` as the compound, how does the IC50 [1] read?
**A.** 2000 nM

**Q.** And the IC50 [2]?
**A.** 38 nM

**Q.** Which results are given for `N#Cc1ccc(Cn2ccnc2)cc1Oc1cccc(Oc2ccccc2)c1`?
**A.** IC50 [1]: 280 nM; IC50 [2]: 14 nM

**Q.** With `CC(C)(C)c1cccc(Oc2cc(Cn3ccnc3)ccc2C#N)c1` as the compound, how does the IC50 [1] read?
**A.** 520 nM

**Q.** What about the IC50 [2] of the same compound?
**A.** 27 nM

**Q.** Which IC50 [1] does the source give for `N#Cc1ccc(Cn2ccnc2)cc1Oc1cccc(C(=O)Nc2ccccc2)c1` here?
**A.** 3300 nM

**Q.** What about the IC50 [2] of the same compound?
**A.** 38 nM

**Q.** How did the IC50 [1] turn out when `N#Cc1ccc(Cn2ccnc2)cc1Oc1ccc(-c2ccccc2)cc1` was run?
**A.** 1300 nM

**Q.** What does the source list for `N#Cc1ccc(Cn2ccnc2)cc1Oc1cccc2ccccc12`?
**A.** IC50 [1]: 3200 nM; IC50 [2]: 150 nM

**Q.** With `N#Cc1ccc(Cn2ccnc2)cc1Oc1ccc2ccccc2c1` as the compound, how does the IC50 [1] read?
**A.** 520 nM

**Q.** And the IC50 [2]?
**A.** 1.1 nM

**Q.** With `N#Cc1ccc(Cn2ccnc2)cc1Oc1cccc(F)c1` as the compound, how does the IC50 [1] read?
**A.** 4400 nM

**Q.** And the IC50 [2]?
**A.** 180 nM

**Q.** What does the source list for `N#Cc1ccc(Cn2ccnc2)cc1[S+]([O-])c1ccc(Cl)cc1Cl` (stereo not drawn)?
**A.** IC50 [1]: 2000 nM; IC50 [2]: 390 nM

**Q.** What does the source list for `COc1cccc(Oc2cc(Cn3ccnc3)ccc2C#N)c1`?
**A.** IC50 [1]: 3500 nM; IC50 [2]: 40 nM

**Q.** `N#Cc1ccc(Cn2ccnc2)cc1OCCCc1ccccc1` was tested. Which IC50 [1] did it give?
**A.** 3100 nM

**Q.** And the IC50 [2]?
**A.** 200 nM

**Q.** With `N#Cc1ccc(Cn2ccnc2)cc1OCCc1ccccc1` as the compound, how does the IC50 [1] read?
**A.** 7000 nM

**Q.** What about the IC50 [2] of the same compound?
**A.** 860 nM

**Q.** For `N#Cc1ccc(Cn2ccnc2)cc1Oc1cccc(Cc2ccccc2)c1`, which IC50 [1] is on record?
**A.** 600 nM

**Q.** What about the IC50 [2] of the same compound?
**A.** 230 nM

**Q.** Which results are given for `N#Cc1ccc(Cn2ccnc2)cc1Oc1ccccc1-c1ccccc1`?
**A.** IC50 [1]: 740 nM; IC50 [2]: 110 nM

**Q.** With `N#Cc1ccc(Cn2ccnc2)cc1OCCc1ccc(-c2ccccc2)cc1` as the compound, how does the IC50 [1] read?
**A.** 12000 nM

**Q.** And the IC50 [2]?
**A.** 86 nM

**Q.** For `COc1ccc(OC)c(Oc2cc(Cn3ccnc3)ccc2C#N)c1`, which IC50 [1] is on record?
**A.** 18000 nM

**Q.** What about the IC50 [2] of the same compound?
**A.** 100 nM

**Q.** Which IC50 [3] does the source give for `N#Cc1ccc(Cn2ccnc2)cc1Oc1ccc(Cl)cc1Cl` here?
**A.** 260 nM

**Q.** What about the IC50 [1] of the same compound?
**A.** 280 nM

**Q.** What about the IC50 [2] of the same compound?
**A.** 8 nM

**Q.** Which IC50 [1] does the source give for `N#Cc1ccc(Cn2ccnc2)cc1OCc1ccccc1` here?
**A.** 6800 nM

**Q.** And the IC50 [2]?
**A.** 1500 nM

**Q.** With `N#Cc1ccc(Cn2ccnc2)cc1Oc1ccc(Cl)c(Cl)c1` as the compound, how does the IC50 [1] read?
**A.** 1200 nM

**Q.** What about the IC50 [2] of the same compound?
**A.** 28 nM

**Q.** Which IC50 [1] does the source give for `COc1ccccc1Oc1cc(Cn2ccnc2)ccc1C#N` here?
**A.** 28000 nM

**Q.** And the IC50 [2]?
**A.** 340 nM

**Q.** Which results are given for `N#Cc1ccc(Cn2ccnc2)cc1OCCCCc1ccccc1`?
**A.** IC50 [1]: 380 nM; IC50 [2]: 440 nM

**Q.** Which results are given for `CC(=O)c1cccc(Oc2cc(Cn3ccnc3)ccc2C#N)c1`?
**A.** IC50 [1]: 6100 nM; IC50 [2]: 45 nM

**Q.** What does the source list for `N#Cc1ccc(Cn2ccnc2)cc1Oc1cccc(Cl)c1`?
**A.** IC50 [1]: 3200 nM; IC50 [2]: 53 nM

**Q.** With `N#Cc1ccc(Cn2ccnc2)cc1Sc1ccc(Cl)cc1Cl` as the compound, how does the IC50 [3] read?
**A.** 96 nM

**Q.** And the IC50 [1]?
**A.** 23 nM

**Q.** And the IC50 [2]?
**A.** < 1 nM

**Q.** For `CCC1(c2cccc(Oc3cc(Cn4ccnc4)ccc3C#N)c2)CCCCN(C)C1=O` (stereo not drawn), which IC50 [3] is on record?
**A.** 4.9 nM

**Q.** What about the IC50 [1] of the same compound?
**A.** 7.1 nM

**Q.** And the IC50 [2]?
**A.** 2.9 nM

**Q.** For `N#Cc1ccc(Cn2ccnc2)cc1Oc1cccc(-c2ccccc2)c1`, which IC50 [1] is on record?
**A.** 520 nM

**Q.** And the IC50 [2]?
**A.** 9.6 nM

**Q.** Which IC50 [1] does the source give for `N#Cc1ccc(Cn2ccnc2)cc1Oc1cccc(Nc2ccccc2)c1` here?
**A.** 630 nM

**Q.** And the IC50 [2]?
**A.** 17 nM

**Q.** `N#Cc1ccc(Cn2ccnc2)cc1Oc1ccccc1` was tested. Which IC50 [1] did it give?
**A.** 3700 nM

**Q.** What about the IC50 [2] of the same compound?
**A.** 230 nM

**Q.** How did the IC50 [2] turn out when `Cc1ncn(Cc2ccc(C#N)cc2)c1CN1CC(=O)N(c2cccc(Cl)c2)CC1CCS(C)(=O)=O` (stereo not drawn) was run?
**A.** 475 nM
